Test results: patent US6512130B1, “Mifepristone analogue, process for the preparation thereof and use thereof” (Council of Scientific and Industrial Research, priority 2000, dated 2003)
Values joined by “and” are separate entries in the source; they are usually repeats but may differ in a detail not shown here. Equal entries are not always repeated.

Molecular target: T1, rabbit uterine progesterone receptor (Oryctolagus cuniculus, UniProt P06186)
T1 construct: performed using rabbit uterine cytosol and 3H progesterone (radioligand); from tissue; host or cells: uterus of immature, estradiol-dipropionate-primed rabbits; 105000 x g cytosol treated with dextran-coated charcoal
T1 sequence (P06186 1-930): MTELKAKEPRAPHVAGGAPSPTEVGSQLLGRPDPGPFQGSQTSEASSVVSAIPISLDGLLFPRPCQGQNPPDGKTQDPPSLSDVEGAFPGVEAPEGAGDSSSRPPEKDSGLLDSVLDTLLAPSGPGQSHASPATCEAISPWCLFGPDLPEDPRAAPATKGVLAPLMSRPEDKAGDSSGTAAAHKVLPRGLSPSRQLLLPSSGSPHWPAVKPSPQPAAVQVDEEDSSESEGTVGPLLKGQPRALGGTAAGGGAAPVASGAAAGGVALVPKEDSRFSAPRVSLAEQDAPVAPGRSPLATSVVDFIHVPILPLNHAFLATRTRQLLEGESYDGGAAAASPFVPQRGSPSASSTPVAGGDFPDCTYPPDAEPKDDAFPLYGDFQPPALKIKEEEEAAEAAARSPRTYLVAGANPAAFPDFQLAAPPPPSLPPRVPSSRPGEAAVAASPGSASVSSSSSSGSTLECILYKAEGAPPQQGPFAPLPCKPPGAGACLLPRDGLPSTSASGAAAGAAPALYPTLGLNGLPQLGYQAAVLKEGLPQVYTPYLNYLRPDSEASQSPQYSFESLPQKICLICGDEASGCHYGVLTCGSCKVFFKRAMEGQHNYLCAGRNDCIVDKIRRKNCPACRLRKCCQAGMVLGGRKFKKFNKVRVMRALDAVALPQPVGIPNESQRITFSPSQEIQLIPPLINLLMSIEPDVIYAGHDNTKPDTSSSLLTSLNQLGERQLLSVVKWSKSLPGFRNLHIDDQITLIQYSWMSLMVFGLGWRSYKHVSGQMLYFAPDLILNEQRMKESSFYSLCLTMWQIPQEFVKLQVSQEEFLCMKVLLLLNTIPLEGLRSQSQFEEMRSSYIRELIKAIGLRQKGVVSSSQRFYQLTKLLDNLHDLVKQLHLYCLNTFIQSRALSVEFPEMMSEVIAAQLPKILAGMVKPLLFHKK
Test: Competitive binding assay for progesterone receptors using rabbit uterine cytosol and 3H-progesterone
Conditions: rabbit uterine cytosol, 3H-progesterone 8×10^−9 M, 1 μM unlabelled cortisol, 4° C. 20 hours; progesterone taken as 100
Description: Crude products 3, 4, and 5 may be purified by column chromatography using silica gel, basic alumina, acidic alumina or neutral alumina as adsorbants and ethyl acetate, ethyl acetate-benzene, or ethyl acetate-chloroform as solvent systems. […] The competitive binding assay for progesterone receptors (PR) was performed using rabbit uterine cytosol and 3H progesterone (radioligand) in the presence of unlabelled cortisol at 4° C. Competitor dilutions were prepared in DMF:Tris buffer pH 7.4 (1:1). […] The activity of progesterone is taken as 100.
Animals. Immature rabbits weighing about 1 kg were administered 100 μg estradioldipropionate intramuscularly for four days and were sacrificed on the fifth day. Uteri were removed, washed with ice cold saline and weighed. Uteri were homogenised in four volumes of 50 mM Tris buffer, pH 7.4 containing 1 mM EDTA, 12 mM monothioglycerol and 10% glycerol (v/v) at 2° C. using polytron PT-10 homoniser.
The homogenate was ultracentrifuged at 105000×g for 60 minutes at 4° C. The resultant supernatant (cytosol) was treated with equal volume of dextran coated charcoal (0.5% charcoal and 0.05% dextran in TEMG buffer) for 30 minutes with occasional stirring at 0° C. DCC treated cytosol was used for binding assay.
Prior to the assay, cytosol was Incubated with 1 μM unlabelled cortisol for 30 minutes at 0° C. Aliquots of the cytosol were incubated at 4° C. for 20 hours with a constant concentration of ^3H-progesterone (8×10^−9 M) in the absence or presence of increasing concentration (1 to 10000×10^−9 M) of either unlabelled progesteroine or test compounds. ^3H-progesterone bound was measured for each incubate by the technique of charcoal adsorption.
Calculation of relative binding affinity of test compounds was done by plotting the curves between the percentage of bound titrated progesterone as a function of the iogarithm of the unlabelled progesterone concentration and as a function of logarithm of the concentration of unlabelled test compounds (FIGS. 1 and 2). […]

Relative binding affinity (%)	Structure (SMILES)
174.65%	CC(C)C#C[C@]1(O)CCC2C3CCC4=CC(=O)CCC4=C3C(c3ccc(N(C)C)cc3)C[C@@]21C (stereo partly drawn) [Compound 1, 11β-[4-(N,N-dimethylamino)phenyl]-17β-hydroxy-17α-(3-methyl-1-butynyl)-estra-4,9-dien-3-one]
103% and 103.44%	CC#C[C@]1(O)CC[C@H]2[C@@H]3CCC4=CC(=O)CCC4=C3[C@@H](c3ccc(N(C)C)cc3)C[C@@]21C [Compound 6, Mifepristone]
100%	CC(=O)[C@H]1CC[C@H]2[C@@H]3CCC4=CC(=O)CC[C@]4(C)[C@H]3CC[C@]12C [Progesterone]
